The results in this text go back to US12643887B2, “Heterocyclic derivatives with cardiomyocyte proliferation activity for treatment of heart diseases” (Tongji University, priority 2019, dated 2026).

Each structure is given as a SMILES string.

The target of experiment [1] is T1, human HIPK2 (Homo sapiens, UniProt Q9H2X6).
T1 construct: Recombinant human HIPK2 (1-640); GST (N); purchased SignalChem H04-11BG; host or cells: Sf9 insect cells
The experiment in a line: HIPK2 enzyme assay (ADP-Glo). The experiment is classed as biochemical. The following applies: ADP-Glo, ATP 5 μM; read-out: HIPK2 IC50. As to the method:
The ability of compounds to inhibit human HIPK2 kinase activities was determined using a commercially available ADP-Glo™ Kinase Assay kit (Promega, Cat #V9102) according to the manufacturer's protocol.
Recombinant human HIPK2 (1-640) (expressed in Sf9 insect cells with an N-terminal GST tag) was purchased from SignalChem (Cat #H04-11BG). Recombinant full length human MBP (expressed in E. Coli cells with an N-terminal GST tag) was purchased from SignalChem (Cat #M42-54G). This assay, run in a 384-well plate format, is a generic method for measuring kinase activities using an ADP-Glo Kinase Assay Kit. The basic assay procedure involves two steps: (1) Enzymatic step: inhibitors are incubated with the kinase and then ATP (included in the ADP-Glo Kinase Assay Kit) and the MBP protein are added to start the enzymatic reaction; (2) Detection step: after the kinase reaction, first ADP-Glo™ Reagent is added to terminate the kinase reaction and deplete the remaining ATP. Second, the Kinase Detection Reagent is added to simultaneously convert ADP to ATP and allow the newly synthesized ATP to be measured using a luciferase/luciferin reaction. The light generated is measured using a luminometer.
Briefly, HIPK2 (1 nM) in the enzymatic buffer solutions (40 mM Tris, pH 7.5, 20 mM MgCl2, 0.1 mg/ml BSA, 50 μM DTT) were mixed with various concentrations of inhibitors (dissolved in 100% DMSO). These solutions were incubated for 30 minutes at 25° C., and subsequently a mixture of substrate peptide and ATP was added with the final peptide and ATP concentrations at 0.05 mg/ml and 5 μM, respectively. The final reaction mixture of enzyme-substrate-ATP-compound was incubated for 90 minutes at 25° C.
Afterwards ADP-Glo™ Reagent was added and the mixture was incubated at 25° C. for 60 minutes. Then Kinase Detection Reagent was added, and the final mixture was incubated at 25° C. for 60 minutes. The luminescence signal of the final solution was measured on an Envision instrument (PerkinElmer). The percent (%) inhibition at each concentration of a compound is calculated relative to the luminescence signal in the Max and Min control wells contained within each assay plate. […] The concentrations and percent inhibition values for a test compound are plotted and the concentration of the compound required to achieve 50% inhibition (IC50) is determined with a four-parameter logistic dose response equation.
A general note: ADP-Glo first removes unused ATP, then detects ADP through luciferase.

Experiment [2] deals with Neonatal Rat Ventricular Myocytes (NRVMs). The experiment in a line: Myocyte proliferation assay (EdU assay) in neonatal rat ventricular myocytes. The format is cell-based. As to conditions: growth relative to blank myocyte growth without compound added; for Avg 1 uM (average myocyte proliferation): compound 1 uM; for Avg 3 uM (average myocyte proliferation): compound 3 uM; for Avg 10 uM (average myocyte proliferation): compound 10 uM. As to the method: 1. Isolation of and Culture Neonatal Rat Ventricular Myocytes (NRVMs)
Ventricles from neonatal rats were separated from the atria, cut into small pieces (about 2×2 mm^2) and then dissociated in Ca2+-free HBSS containing 0.125 mg ml-1 trypsin (Gibco), 10 μg ml-1 DNase II (Sigma) and 0.1 mg ml-1 collagenase type IV (Sigma). The digestion was carried out under constant stirring at 37° C. for 5 min. The supernatant was collected with FBS (Gibco) after each digestion period. After digestion, the collected supernatant was centrifuged at 1000 g for 10 min at room temperature, and then cell pellets were resuspended in DMEM (Gibco) supplemented with 10% FBS and with 100 uM 5-bromo-2′-deoxyuridine (Sigma). The resuspended cells were passed through a cell strainer ([…], BD Falcon) and seeded onto 100-mm plastic dishes for 2 h at 37° C. in a 5% CO2 to remove fibroblasts, the supernatant was then collected and plated onto 1% gelatin (Sigma)-coated dishes. 24 h after the seeding, the medium was changed to DMEM (Gibco) containing 2% FBS (Gibco), 1% insulin-transferrin-selenium (ITS; Gibco), 1% Penicillin-Streptomycin (Gibco). After 24 hours of low serum culture, remove the medium with DMEM (Gibco) containing 6% FBS (Gibco), 1% insulin-transferrin-selenium (ITS; Gibco), 1% Penicillin-Streptomycin (Gibco), different concentrations of compounds (the compounds were pre-diluted in the medium and the drug concentration was 10 uM, 3 uM, 1 uM, fully mixed). After 36 h add Edu substrate (Invitrogen) according to the manufacturer's guidelines, and then after 12 h cell can be used.
• 2.1. Immobilization: Remove the medium and fix the cells with […] in 200 ul (whichever is covered) for 15 min and wash the cells twice with 500 ul of PBS for 5 min each time. • 2.2. Broken membrane: Add 200 ul of 0.3% Triton-X 100 (diluted in PBS) to each well, incubate for 10-15 min at room temperature (the time should not be too long), and wash the cells twice with 500 ul of PBS for 5 min each time. • 2.3. Blocking: Add 200 ul of 10% normal goat serum (diluted with 0.1% PBST) to each well, incubate for 1 h at room temperature, and wash twice with 500 ul of 0.1% PBST for 5 min each time. • 2.4. Primary antibody: dilute the primary antibody (abcam, ab8295) to blocking solution at a ratio of 1:200, add 100 ul per well, incubate for 1 h at room temperature (may be slightly longer than 2-3 h), wash the cells twice with 500 ul 0.1% PBST for 5 min each time. • 2.5. Secondary antibody: Dilute the fluorescently labeled secondary antibody (abcam, ab150117) into blocking solution at a ratio of 1:200, add 100 ul per well, incubate for 1 h at room temperature (the time should not be too long), wash the cells twice with 0.1% PBST for 5 min each time, pay attention to the whole process. Protected from light. • 2.6. Edu staining (Invitrogen C10338) • 2.6.1 Prepare Click-iT® reaction cocktail according to Table 3. It was important to add the ingredients in the order listed in the table; otherwise, the reaction would not proceed optimally. Use the Click-iT® reaction cocktail within 15 minutes of preparation.
• 2.6.2 Add 0.1 mL of Click-iT® reaction cocktail to each well containing a coverslip. Rock the plate briefly to ensure that the reaction cocktail is distributed evenly over the coverslip. • 2.6.3 Incubate the plate for 30 minutes at room temperature, protected from light. • 2.6.4 Remove the reaction cocktail, then wash the cells twice with 0.1% PBST for 5 min each time. • 2.7. DAPI staining: DAPI stain was diluted to PBS at a ratio of 1:1000, 100 ul per well, incubated for 30 min at room temperature, and the cells were washed twice with PBS for 5 min each. 3. Data Analysis
We used Molecular Devices' Image Xpress Micro Confocal for high-throughput photo and data analysis.

T1 sequence (Q9H2X6 1-640): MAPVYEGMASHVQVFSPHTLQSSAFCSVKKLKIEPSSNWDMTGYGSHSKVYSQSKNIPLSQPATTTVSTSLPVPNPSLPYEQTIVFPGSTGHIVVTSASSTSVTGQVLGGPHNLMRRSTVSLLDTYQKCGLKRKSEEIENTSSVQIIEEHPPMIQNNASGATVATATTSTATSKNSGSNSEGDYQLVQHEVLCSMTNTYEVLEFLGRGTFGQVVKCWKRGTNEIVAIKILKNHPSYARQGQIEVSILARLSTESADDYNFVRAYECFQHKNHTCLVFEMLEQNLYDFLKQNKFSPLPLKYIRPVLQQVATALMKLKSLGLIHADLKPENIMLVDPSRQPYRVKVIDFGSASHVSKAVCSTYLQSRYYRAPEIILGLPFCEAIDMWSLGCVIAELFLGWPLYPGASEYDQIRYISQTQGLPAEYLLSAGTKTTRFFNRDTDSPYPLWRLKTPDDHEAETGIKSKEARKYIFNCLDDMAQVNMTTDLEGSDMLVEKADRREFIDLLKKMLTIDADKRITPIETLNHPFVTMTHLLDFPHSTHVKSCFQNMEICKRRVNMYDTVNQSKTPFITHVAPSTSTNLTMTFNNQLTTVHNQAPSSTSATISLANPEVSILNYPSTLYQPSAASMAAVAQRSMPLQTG

Take `COc1ccc(NC2=N/C(=C\c3ccc4ncsc4c3)C(=O)N2)cc1` [Example 25, (Z)-5-(benzo[d]thiazol-6-ylmethylene)-2-((4-methoxyphenyl)amino)-3,5-dihydro-4H-imidazol-4-one]: the IC50 (commonly the point on the concentration scale where inhibition reaches its midpoint) in experiment [1] is 0.1 to 1 µM. Besides, in experiment [2], the “Avg 1 uM (average myocyte proliferation)” value was “** (10%-50%)”, the “Avg 3 uM (average myocyte proliferation)” value is given as “* (<10% growth relative to blank myocyte growth without compound added.)” and the “Avg 10 uM (average myocyte proliferation)” value (from here on “Avg 10 uM”) is reported as “* (<10% growth relative to blank myocyte growth without compound added.)”.
Take `O=C1NC(Nc2ccccc2)=N/C1=C\c1ccc2[nH]cnc2c1` [Example 26, (Z)-5-((1H-benzo[d]imidazol-5-yl)methylene)-2-(phenylamino)-3,5-dihydro-4H-imidazol-4-one]: the half-maximal inhibitory concentration (IC50) in experiment [1] is 0.1 to 1 µM. Further, in experiment [2], the “Avg 1 uM (average myocyte proliferation)” value is on record as “* (<10% growth relative to blank myocyte growth without compound added.)”, the “Avg 3 uM (average myocyte proliferation)” value is given as “* (<10% growth relative to blank myocyte growth without compound added.)” and the “Avg 10 uM” value was “* (<10% growth relative to blank myocyte growth without compound added.)”.
As to `O=C(O)CCN(C1=N/C(=C\c2ccc3c(c2)OCO3)C(=O)N1)c1ccccc1` [Example 27, (Z)-3-((4-(benzo[d][1,3]dioxol-5-ylmethylene)-5-oxo-4,5-dihydro-1H-imidazol-2-yl)(phenyl)amino)propanoic acid], the 50% inhibitory concentration (IC50) in experiment [1] was in the range of 1 to 10 µM. In addition, in experiment [2], the “Avg 1 uM (average myocyte proliferation)” value was “* (<10% growth relative to blank myocyte growth without compound added.)”, the “Avg 3 uM (average myocyte proliferation)” value is “* (<10% growth relative to blank myocyte growth without compound added.)” and the “Avg 10 uM” value is “** (10%-50%)”.
Consider `CN(Cc1ccccc1)C1=N/C(=C\c2ccc3ncsc3c2)C(=O)N1` [Example 28, (Z)-5-(benzo[d]thiazol-6-ylmethylene)-2-(benzyl(methyl)amino)-3,5-dihydro-4H-imidazol-4-one], for which the IC50 in experiment [1] fell in the range of 1 to 10 µM. In addition, in experiment [2], the “Avg 1 uM (average myocyte proliferation)” value was “* (<10% growth relative to blank myocyte growth without compound added.)”, the “Avg 3 uM (average myocyte proliferation)” value is listed as “* (<10% growth relative to blank myocyte growth without compound added.)” and the “Avg 10 uM” value is given as “* (<10% growth relative to blank myocyte growth without compound added.)”.
Consider `O=C1NC(NCCN2CCOCC2)=N/C1=C\c1ccc2ncsc2c1` [Example 29, (Z)-5-(benzo[d]thiazol-6-ylmethylene)-2-((2-morpholinoethyl)amino)-3,5-dihydro-4H-imidazol-4-one], for which the IC50 in experiment [1] is 1 to 10 µM. Further, in experiment [2], the “Avg 1 uM (average myocyte proliferation)” value is listed as “** (10%-50%)”, the “Avg 3 uM (average myocyte proliferation)” value was “* (<10% growth relative to blank myocyte growth without compound added.)” and the “Avg 10 uM” value was “*** (>50%)”.
`CN(C1=N/C(=C\c2ccc3[nH]cnc3c2)C(=O)N1)c1ccccc1` [Example 30, (Z)-5-((1H-benzo[d]imidazol-5-yl)methylene)-2-(methyl(phenyl)amino)-3,5-dihydro-4H-imidazol-4-one]: the IC50 in experiment [1] is > 10 µM. For the same molecule, in experiment [2], the “Avg 1 uM (average myocyte proliferation)” value is given as “* (<10% growth relative to blank myocyte growth without compound added.)” and the “Avg 3 uM (average myocyte proliferation)” value is “* (<10% growth relative to blank myocyte growth without compound added.)”.
Regarding `O=C1NC(NCc2ccccc2)=N/C1=C\c1ccc2ncsc2c1` [Example 31, (Z)-5-(benzo[d]thiazol-6-ylmethylene)-2-(benzylamino)-3,5-dihydro-4H-imidazol-4-one], the half-inhibitory concentration (IC50) in experiment [1] was in the range of 0.1 to 1 µM. Besides, in experiment [2], the “Avg 1 uM (average myocyte proliferation)” value is reported as “** (10%-50%)” and the “Avg 3 uM (average myocyte proliferation)” value was “** (10%-50%)”.
`CN(CCN1CCOCC1)C1=N/C(=C\c2ccc3ncsc3c2)C(=O)N1` [Example 32, (Z)-5-(benzo[d]thiazol-6-ylmethylene)-2-(methyl(2-morpholinoethyl)amino)-3,5-dihydro-4H-imidazol-4-one]: in experiment [1], the IC50 is > 10 µM. In addition, in experiment [2], the “Avg 1 uM (average myocyte proliferation)” value is on record as “* (<10% growth relative to blank myocyte growth without compound added.)” and the “Avg 3 uM (average myocyte proliferation)” value was “* (<10% growth relative to blank myocyte growth without compound added.)”.
With `CN(CC1CC1)C1=N/C(=C\c2ccc3ncsc3c2)C(=O)N1` [Example 33, (Z)-5-(benzo[d]thiazol-6-ylmethylene)-2-((cyclopropylmethyl)(methyl)amino)-3,5-dihydro-4H-imidazol-4-one], in experiment [1], the IC50 is 1 to 10 µM. Further, in experiment [2], the “Avg 1 uM (average myocyte proliferation)” value is given as “* (<10% growth relative to blank myocyte growth without compound added.)” and the “Avg 3 uM (average myocyte proliferation)” value is on record as “* (<10% growth relative to blank myocyte growth without compound added.)”.
In the case of `O=C1NC(NCC2CC2)=N/C1=C\c1ccc2ncsc2c1` [Example 34, (Z)-5-(benzo[d]thiazol-6-ylmethylene)-2-((cyclopropylmethyl)amino)-3,5-dihydro-4H-imidazol-4-one], the half-maximal inhibitory concentration (IC50) in experiment [1] lay within 1 to 10 µM. Further, in experiment [2], the “Avg 1 uM (average myocyte proliferation)” value is given as “** (10%-50%)” and the “Avg 3 uM (average myocyte proliferation)” value was “*** (>50%)”.
For `O=C1NC(N(Cc2ccccc2)c2ccccc2)=N/C1=C\c1ccc2[nH]cnc2c1` [Example 35, (Z)-5-((1H-benzo[d]imidazol-5-yl)methylene)-2-(benzyl(phenyl)amino)-3,5-dihydro-4H-imidazol-4-one], in that order: > 10 µM, “* (<10% growth relative to blank myocyte growth without compound added.)” and “* (<10% growth relative to blank myocyte growth without compound added.)”.
